Data set [1] concerns the target T1, Nuclear factor erythroid 2-related factor 2 (Homo sapiens) (UniProt Q16236).
T1 sequence (whole entry): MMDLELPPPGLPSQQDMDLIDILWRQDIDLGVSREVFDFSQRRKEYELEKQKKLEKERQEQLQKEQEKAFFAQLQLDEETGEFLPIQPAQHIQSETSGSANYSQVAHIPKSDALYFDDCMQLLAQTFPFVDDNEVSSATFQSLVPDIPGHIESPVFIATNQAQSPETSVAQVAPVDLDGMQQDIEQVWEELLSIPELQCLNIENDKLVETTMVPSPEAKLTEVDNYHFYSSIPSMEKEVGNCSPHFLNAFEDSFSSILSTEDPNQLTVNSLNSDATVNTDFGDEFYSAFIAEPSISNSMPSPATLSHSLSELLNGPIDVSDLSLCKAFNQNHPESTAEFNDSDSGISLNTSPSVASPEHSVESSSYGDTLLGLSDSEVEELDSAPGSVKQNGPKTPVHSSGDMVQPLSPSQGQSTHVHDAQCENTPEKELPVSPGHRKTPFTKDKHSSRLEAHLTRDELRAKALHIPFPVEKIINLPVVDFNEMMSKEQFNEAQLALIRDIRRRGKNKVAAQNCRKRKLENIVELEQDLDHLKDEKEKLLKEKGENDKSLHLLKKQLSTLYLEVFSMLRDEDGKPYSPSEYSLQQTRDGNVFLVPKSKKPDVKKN
In words: Activation of Nrf2 in human HSC3-ARE9 cells assessed as increase of ARE-mediated luciferase expression at 50 uM after 24 hrs relative to control. Type of data set: cell-based.

A short description of data set [2]: Cytotoxicity against human HSC3 cells after 24 hrs by MTT assay. The format is cell-based. To be noted: hsc-3, 24 h.
Data set [3] can be described thus: Antioxidant activity assessed as DPPH radical scavenging activity. The format is physicochemical. A general note: DPPH is a stable violet radical that fades when it is reduced.
Data set [4] deals with T1, Nuclear factor erythroid 2-related factor 2 (Homo sapiens). The data set is described as follows: Activation of Nrf2 in human HSC3-ARE9 cells assessed as increase of ARE-mediated luciferase expression after 24 hrs. The format is cell-based.

Each structure is given as a SMILES string.

Drawing on ChEMBL document CHEMBL3739322, “Novel oxime-bearing coumarin derivatives act as potent Nrf2/ARE activators in vitro and in mouse model” (Eur J Med Chem, 2015), this text covers fold change (FC), Activity and EC50 for 70 compounds.

Regarding `O=c1ccc2cc(OC/C(=N\O)c3ccc(-c4ccccc4)cc3)ccc2o1`, in data set [1], the fold change (FC) was determined as 1.5.

Regarding `O=C(COc1ccc2oc(=O)ccc2c1)c1ccccc1`, the fold change (FC) in data set [1] worked out at 2.54. On the same count and under the same terms, under `COc1ccc(/C(COc2ccc3oc(=O)ccc3c2)=N/O)cc1` stands 1.33; under `O=C(COc1cc(=O)oc2ccccc12)Nc1ccccc1`, 1.06; under `CC(=O)COc1ccc2oc(=O)ccc2c1`, 1.03. Same read-out and setting: under `COc1ccc(/C(COc2cc3ccccc3oc2=O)=N/O)cc1` stands 1.49.

Regarding `O=C(COc1cc2ccccc2oc1=O)c1ccc2ccccc2c1`, the fold change (FC) in data set [1] was 0.98. As to `C/C(COc1cc2ccccc2oc1=O)=N\O`, the fold change (FC) in data set [1] was found to be 1.63.

Regarding `CC(=O)COc1cc(=O)oc2ccccc12`, the fold change (FC) in data set [1] was 0.79. For the compound `O=c1ccc2ccc(OC/C(=N\O)c3ccccc3)cc2o1`, in data set [1], the fold change (FC) was 2.16. In the case of `O=c1oc2ccccc2cc1OC/C(=N\O)c1ccc(-c2ccccc2)cc1`, the fold change (FC) in data set [1] is 1.44.

As to `C/C(COc1cc(=O)oc2ccccc12)=N\O`, the fold change (FC) in data set [1] came out at 1.37.

Take `O=C(COc1ccc2ccc(=O)oc2c1)c1ccc(F)cc1`: the fold change (FC) in data set [1] worked out at 1.14. As to `O=C(COc1cc2ccccc2oc1=O)c1ccccc1`, in data set [1], the fold change (FC) is 1.72. Turning to `O=c1oc2ccccc2cc1OC/C(=N\O)c1ccc(F)cc1`, the figures for the Activity entry in data set [2] and in data set [4] were “Non-toxic” and “Dose-dependent effect”, respectively. Further, the concentration giving a half-maximal response (EC50) – broadly, the concentration needed to bring the measured effect to its halfway point – in data set [3] is > 400 µM. Also, in data set [1], the fold change (FC) is 3.25. With `O=C(COc1ccc2ccc(=O)oc2c1)Nc1ccc(F)cc1`, the fold change (FC) in data set [1] worked out at 1.16. The same measure, in the same setting: under `C/C(COc1ccc2oc(=O)ccc2c1)=N\O` stands 1.64; under `COc1ccc(C(=O)COc2ccc3ccc(=O)oc3c2)cc1`, 1.07.

As for `O=C(COc1ccc2oc(=O)ccc2c1)c1ccc2ccccc2c1`, in data set [1], the fold change (FC) was 0.61. Same read-out and setting: under `COc1ccc(C(=O)COc2cc(=O)oc3ccccc23)cc1` stands 1.36; under `O=C(COc1cc(=O)oc2ccccc12)Nc1ccc(F)cc1`, 1.11; under `O=C(COc1cc(=O)oc2ccccc12)c1ccc(F)cc1`, 1.26. On to `O=c1ccc2ccc(OC/C(=N\O)c3ccc(-c4ccccc4)cc3)cc2o1`, for which the fold change (FC) in data set [1] was determined as 0.9.

With `O=C(COc1ccc2oc(=O)ccc2c1)Nc1ccc(-c2ccccc2)cc1`, the fold change (FC) in data set [1] was 0.95.

With `CC(=O)COc1ccc2ccc(=O)oc2c1`, the fold change (FC) in data set [1] was 1.09. Same read-out and setting: under `COc1ccc(NC(=O)COc2cc(=O)oc3ccccc23)cc1` stands 1.34; under `COc1ccc(C(=O)COc2cc3ccccc3oc2=O)cc1`, 1.54. As to `O=c1cc(O)c2ccccc2o1` [4-HYDROXYCOUMARINS], in data set [3], the EC50 is 351 µM. Also, the fold change (FC) in data set [1] stood at 0.84. With `O=C(COc1ccc2ccc(=O)oc2c1)Nc1ccc(-c2ccccc2)cc1`, the fold change (FC) in data set [1] was found to be 1.09. With `O=C(COc1cc(=O)oc2ccccc12)c1ccc2ccccc2c1`, in data set [1], the fold change (FC) was 1.52. As to `O=c1ccc2ccc(OC/C(=N\O)c3ccc(F)cc3)cc2o1`, the fold change (FC) in data set [1] stood at 1.32.

Consider `O=C(COc1cc2ccccc2oc1=O)c1ccc(-c2ccccc2)cc1`, for which, in data set [1], the fold change (FC) came to 0.98. Still for that read-out and setting: under `COc1ccc(/C(COc2ccc3ccc(=O)oc3c2)=N/O)cc1` stands 1.28; under `C/C(COc1ccc2ccc(=O)oc2c1)=N\O`, 1.68.

With `O=C(COc1ccc2ccc(=O)oc2c1)c1ccccc1`, the fold change (FC) in data set [1] is 1.93. With `COc1ccc(NC(=O)COc2ccc3oc(=O)ccc3c2)cc1`, the fold change (FC) in data set [1] was 0.89. Same read-out and setting: under `O=C(COc1ccc2ccc(=O)oc2c1)Nc1ccc2ccccc2c1` stands 1.06; under `O=C(COc1cc(=O)oc2ccccc12)c1ccc(-c2ccccc2)cc1`, 0.42. Still for that read-out and setting: under `CC(=O)COc1cc2ccccc2oc1=O` stands 0.92. Same read-out and setting: under `COc1ccc(/C(COc2cc(=O)oc3ccccc23)=N/O)cc1` stands 1.76; under `O=c1ccc2cc(OC/C(=N\O)c3ccc(F)cc3)ccc2o1`, 2.32; under `O=C(COc1cc(=O)oc2ccccc12)Nc1ccc2ccccc2c1`, 1.37. With `O=c1oc2ccccc2cc1OC/C(=N\O)c1ccc2ccccc2c1`, in data set [1], the fold change (FC) was found to be 1.31. On the same count and under the same terms, under `O=c1ccc2ccc(OC/C(=N\O)c3ccc4ccccc4c3)cc2o1` stands 1.04; under `O=c1cc(OC/C(=N\O)c2ccccc2)c2ccccc2o1`, 1.35.

Turning to `O=C(COc1ccc2oc(=O)ccc2c1)Nc1ccccc1`, in data set [1], the fold change (FC) was 2.08.

Take `O=C(COc1ccc2ccc(=O)oc2c1)c1ccc2ccccc2c1`: the fold change (FC) in data set [1] amounted to 0.17.

As for `O=c1cc(OC/C(=N\O)c2ccc(-c3ccccc3)cc2)c2ccccc2o1`, in data set [1], the fold change (FC) turned out to be 1.32. Still for that read-out and setting: under `O=C(COc1cc2ccccc2oc1=O)Nc1ccccc1` stands 2.51. On the same count and under the same terms, under `O=C(COc1ccc2oc(=O)ccc2c1)c1ccc(-c2ccccc2)cc1` stands 0.85. In the case of `O=C(COc1ccc2oc(=O)ccc2c1)Nc1ccc2ccccc2c1`, the fold change (FC) in data set [1] was 0.91. The same measure, in the same setting: under `COc1ccc(NC(=O)COc2cc3ccccc3oc2=O)cc1` stands 0.95; under `O=c1cc(OC/C(=N\O)c2ccc3ccccc3c2)c2ccccc2o1`, 1.43. As to `COc1ccc(NC(=O)COc2ccc3ccc(=O)oc3c2)cc1`, the fold change (FC) in data set [1] came to 0.98.

Regarding `O=C(COc1ccc2ccc(=O)oc2c1)c1ccc(-c2ccccc2)cc1`, the fold change (FC) in data set [1] stood at 0.85. With `O=C(COc1ccc2oc(=O)ccc2c1)c1ccc(F)cc1`, the fold change (FC) in data set [1] was determined as 1.58. Consider `O=C(COc1cc(=O)oc2ccccc12)c1ccccc1`, for which the fold change (FC) in data set [1] came to 1.98. Take `O=c1ccc2ccc(O)cc2o1` [UMBELLIFERONE]: the concentration giving a half-maximal response (EC50) in data set [3] is > 400 µM. Besides, the fold change (FC) in data set [1] is 0.98. As for `O=C(COc1cc2ccccc2oc1=O)Nc1ccc2ccccc2c1`, the fold change (FC) in data set [1] was 1.13. Turning to `O=C(COc1cc2ccccc2oc1=O)Nc1ccc(-c2ccccc2)cc1`, the fold change (FC) in data set [1] stood at 1.22.

For `O=C(COc1cc2ccccc2oc1=O)c1ccc(F)cc1`, in data set [1], the fold change (FC) was 1.64. In the case of `O=C(COc1ccc2ccc(=O)oc2c1)Nc1ccccc1`, in data set [1], the fold change (FC) turned out to be 2.27. On the same count and under the same terms, under `O=C(COc1cc2ccccc2oc1=O)Nc1ccc(F)cc1` stands 1.34; under `O=C(COc1cc(=O)oc2ccccc12)Nc1ccc(-c2ccccc2)cc1`, 1.17; under `O=C(COc1ccc2oc(=O)ccc2c1)Nc1ccc(F)cc1`, 0.95. `O=c1ccc2cc(O)ccc2o1` [6-HYDROXYCOUMARIN]: the half-maximal effective concentration (EC50) in data set [3] is > 400 µM. In addition, in data set [1], the fold change (FC) stood at 0.99.

For the compound `O=c1cc(OC/C(=N\O)c2ccc(F)cc2)c2ccccc2o1`, the fold change (FC) in data set [1] was found to be 1.67. For `O=c1oc2ccccc2cc1O` [3-HYDROXYCOUMARIN], the 50% effective concentration (EC50) in data set [3] was 65.8 µM. Also, the fold change (FC) in data set [1] was 0.94.

Turning to `O=c1ccc2cc(OC/C(=N\O)c3ccc4ccccc4c3)ccc2o1`, in data set [1], the fold change (FC) amounted to 1.46. On to `COc1ccc(C(=O)COc2ccc3oc(=O)ccc3c2)cc1`, for which the fold change (FC) in data set [1] amounted to 0.82.
